This passage reports Activity, IC50 and inhibition results from ChEMBL document CHEMBL4130472, “Synthesis of naphthazarin derivatives and identification of novel thioredoxin reductase inhibitor as potential anticancer agent” (Eur J Med Chem, 2017).

The structures appear in SMILES notation. Changes are numbered by the printed parent chain. The source made the active and inactive calls. The rule behind the calls is not given here. Some results are limits rather than exact numbers.

Data set [1] concerns HL-60. The data set can be described thus: Effect on TrxR1 protein expression in human HL60 cells at 1 to 5 uM incubated for 24 hrs by Western blot. The data set is classed as ADME, cell-based. The following applies: hl-60, 24 h.
For data set [2], the system named is HL-60. The data set can be described thus: Cytotoxicity in human HL60 cells assessed as reduction in cell viability incubated for 48 hrs by MTT assay. The data set is classed as functional, cell-based. The following applies: HL-60, 48 h.
Data set [3] has as its system HL-60. The data set can be described thus: Cytotoxicity in human HL60 cells assessed as reduction in cell viability incubated for 48 hrs by trypan blue dye exclusion assay. The data set is classed as functional, cell-based. As to conditions: HL-60, 48 h.
Another data set concerns HepG2. Briefly: Cytotoxicity in human HepG2 cells assessed as reduction in cell viability at 1 to 5 uM incubated for 48 hrs by MTT assay. Format: functional, cell-based.
A further data set has as its system A549. Briefly: Cytotoxicity in human A549 cells assessed as reduction in cell viability at 1 to 5 uM incubated for 48 hrs by MTT assay. Format: functional, cell-based.
Another data set has as its system HeLa. The data set can be described thus: Cytotoxicity in human HeLa cells assessed as reduction in cell viability at 1 to 5 uM incubated for 48 hrs by MTT assay. The data set is classed as functional, cell-based.
The test system of another data set is HEK-293T. Briefly: Cytotoxicity in human HEK293T cells assessed as reduction in cell viability at 1 to 5 uM incubated for 48 hrs by MTT assay. Format: cell-based.
Data set [4] deals with T1, Thioredoxin reductase 1, cytoplasmic (Rattus norvegicus) (UniProt O89049).
T1 sequence (whole entry): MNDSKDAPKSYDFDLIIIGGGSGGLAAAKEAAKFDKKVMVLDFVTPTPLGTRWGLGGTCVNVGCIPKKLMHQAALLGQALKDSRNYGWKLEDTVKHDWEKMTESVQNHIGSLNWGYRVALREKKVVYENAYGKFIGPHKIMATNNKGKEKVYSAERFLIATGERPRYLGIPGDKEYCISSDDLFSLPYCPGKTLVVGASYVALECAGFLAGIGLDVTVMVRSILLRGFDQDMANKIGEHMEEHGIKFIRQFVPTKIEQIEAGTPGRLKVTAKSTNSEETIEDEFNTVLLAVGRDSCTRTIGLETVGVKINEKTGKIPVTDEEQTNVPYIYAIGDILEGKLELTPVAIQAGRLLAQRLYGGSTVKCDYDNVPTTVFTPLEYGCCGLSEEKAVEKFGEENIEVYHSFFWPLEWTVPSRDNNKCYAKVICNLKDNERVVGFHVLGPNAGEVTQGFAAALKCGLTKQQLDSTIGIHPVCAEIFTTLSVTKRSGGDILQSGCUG
Briefly: (§1) Inhibition of NADPH-reduced rat TrxR1 assessed as suppression of DTNB reduction incubated for 1 hr.

Data set [5] deals with T2, Thioredoxin reductase 1, cytoplasmic (Rattus norvegicus, UniProt O89049).
T2 sequence (O89049 whole entry): T1 sequence (whole entry)
The description is as §1.

Data set [6] relates to T3, Thioredoxin reductase 1, cytoplasmic (Rattus norvegicus), O89049 [U498C].
T3 sequence (whole entry): T1 sequence (whole entry) with U498C
The data set can be described thus: Inhibition of NADPH-reduced rat TrxR1 U498C mutant assessed as suppression of DTNB reduction at 1 to 5 uM incubated for 1 hr.

In data set [7] the target is T4, Thioredoxin reductase 1, cytoplasmic (Homo sapiens) (UniProt Q16881).
T4 sequence (whole entry): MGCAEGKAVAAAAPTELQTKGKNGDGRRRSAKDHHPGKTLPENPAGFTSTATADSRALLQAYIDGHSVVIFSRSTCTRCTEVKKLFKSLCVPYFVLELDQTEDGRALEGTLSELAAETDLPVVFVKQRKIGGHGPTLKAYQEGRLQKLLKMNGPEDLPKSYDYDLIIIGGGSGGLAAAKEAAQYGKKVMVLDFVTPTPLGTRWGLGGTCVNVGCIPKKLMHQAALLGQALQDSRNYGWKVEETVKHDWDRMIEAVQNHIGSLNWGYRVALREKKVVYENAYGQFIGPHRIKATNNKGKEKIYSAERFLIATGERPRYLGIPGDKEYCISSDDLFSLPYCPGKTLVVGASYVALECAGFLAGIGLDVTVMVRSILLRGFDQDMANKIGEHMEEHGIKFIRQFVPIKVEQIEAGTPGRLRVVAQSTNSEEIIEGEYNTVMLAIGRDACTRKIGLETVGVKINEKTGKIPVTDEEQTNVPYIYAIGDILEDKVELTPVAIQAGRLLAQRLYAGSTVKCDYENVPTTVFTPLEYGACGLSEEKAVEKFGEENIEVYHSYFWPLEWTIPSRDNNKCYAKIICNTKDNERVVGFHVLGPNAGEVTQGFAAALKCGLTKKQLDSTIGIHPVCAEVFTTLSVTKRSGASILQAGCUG
The data set can be described thus: Inhibition of TrxR1 in human HL60 cells incubated for 12 hrs by TRFS-green dye based fluorescence assay. The data set is classed as cell-based.

Data set [8] has as its system HL-60. Briefly: Induction of ROS production in human HL60 cells at 1 to 5 uM incubated for 1 hr by DHE staining based fluorescence assay. The data set is classed as functional, cell-based.
Data set [9] relates to HL-60. Briefly: Reduction in GSH/GSSG ratio in human HL60 cells at 1 to 5 uM incubated for 24 hrs by enzymatic recycling method. The data set is classed as functional, cell-based.
In data set [10] the test system is HL-60. Briefly: Potentiation of H2O2-induced cytotoxicity in human HL60 cells assessed as induction of cell death at 1 uM incubated for 24 hrs by MTT assay (reference value: 4%). The data set is classed as functional.
In data set [11] the test system is HL-60. Briefly: Cytotoxicity in human HL60 cells assessed as cell viability at 1 to 5 uM incubated for 24 hrs after pre-treatment with […] before compound addition by MTT assay. Format: functional, cell-based.
Data set [12] has as its system HL-60. The data set can be described thus: Induction of apoptosis in human HL60 cells assessed as increase in condensed and fluorescent nuclei at 1 to 5 uM incubated for 24 hrs by Hoechst 33342 staining based phase contrast and fluorescence microscopy. Format: functional, cell-based.
Data set [13] relates to HL-60. Briefly: Induction of apoptosis in human HL60 cells 0.5 uM incubated for 24 hrs by Annexin V/propidium iodide staining based flow cytometry. The data set is classed as functional.
Data set [14] deals with HL-60. Briefly: Induction of apoptosis in human HL60 cells 0.5 to 5 uM incubated for 24 hrs in presence of NAC by Annexin V/propidium iodide staining based flow cytometry. Format: functional, cell-based.
The test system of data set [15] is HL-60. Briefly: Induction of necrosis in human HL60 cells 5 uM incubated for 24 hrs by Annexin V/propidium iodide staining based flow cytometry. The data set is classed as functional, cell-based.

In the case of `CC1=CC(=O)c2c(O)ccc(O)c2C1=O`, the Activity result is “Non-Toxic” with HL-60 [1]; “Non-Toxic” in the data set on HEK-293T; “Dose-dependent effect” in the data set on HL-60 [8]; “Dose-dependent effect” in the data set with HL-60 [9]; greater than 43% in the data set on HL-60 [10]; 10% with HL-60 [13]. For the same compound, the IC50 turned out to be 720 nM in the data set on HL-60 [2], 860 nM in the data set with HL-60 [3] and 700 nM in data set [5]. For the same compound, the result with HepG2, with A549, in the data set with HeLa, with HL-60 [12] and in the data set with HL-60 [15] was Active. Further, the inhibition result in data set [4] and in [7] was “Dose-dependent effect” in each case. Besides, the inhibition entry in [6] was “inactive”. Further, the outcome in the data set with HL-60 [11] and with HL-60 [14] was inactive.
